Where only a bound is given, the exact number is not on record here.

For this assay, the target named is T1, BCL6 (Homo sapiens, UniProt P41182).
T1 construct: endogenous in cells; host or cells: T47D breast cancer epithelial cells
Briefly: Immunofluorescence protocol for high content imaging of BCL6 (degradation) in T47D cells, 3 days compound treatment. It counts as cell-based. The note with it: T47D cells, 3 days compound treatment; for DC50: read-out: Mean DC50 (nM)* category; for Dmax: read-out: Mean Dmax (%)** category. In a few lines: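 T47D cells in RPMI1640-10% FBS were treated with an 11-point 3-fold dilution series (final top 0.1 or 1 μM) for 3 days at 37° C. After PFA fixation and Triton permeabilization, cells were immunostained with rabbit anti-BCL6 (1:300, overnight 4° C), Alexa-488 secondary, CellMask-647 and Hoechst, then imaged at 10×, 4 fields/well.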

What is called DC50 is the concentration at which degradation of the target reaches its halfway point. Usually Dmax stands for the largest share of the target that was removed. With `CNC(=O)COc1cc2cc(Nc3nc(N4CCC(F)(CN5CCC6(CC5)CCN(c5cccc7c5CN(C5CCC(=O)NC5=O)C7=O)CC6)CC4)ncc3Cl)ccc2n(C(C)C)c1=O` (centres unmarked) [Compound 82, 2-{[6-({5-chloro-2-[4-({9-[2-(2,6-dioxopiperidin-3-yl)-1-oxo-2,3-dihydro-1H-isoindol-4-yl]-3,9-diazaspiro[5.5]undecan-3-yl}methyl)-4-fluoropiperidin-1-yl]pyrimidin-4-yl}amino)-2-oxo-1-(propan-2-yl)-1,2-dihydroquinolin-3-yl]oxy}-N-methylacetamide], the 50% degradation concentration (DC50) is below 10 nM and the greatest degradation seen (Dmax) is at least 70%.
The corresponding values for `CNC(=O)COc1cc2cc(Nc3nc(N4CCC(CN5CCC6(CC5)CN(c5cc(OC)c7c(c5)C(=O)N(C5CCC(=O)NC5=O)C7=O)C6)CC4)ncc3Cl)ccc2n(C(C)C)c1=O` (centres unmarked) [Compound 83, 2-{[6-({5-chloro-2-[4-({2-[2-(2,6-dioxopiperidin-3-yl)-7-methoxy-1,3-dioxo-2,3-dihydro-1H-isoindol-5-yl]-2,7-diazaspiro [3.5]nonan-7-yl}methyl)piperidin-1-yl]pyrimidin-4-yl}amino)-2-oxo-1-(propan-2-yl)-1,2-dihydroquinolin-3-yl]oxy}-N-methylacetamide] are below 10 nM and 50 to 70%.
The corresponding values for `CNC(=O)COc1cc2cc(Nc3nc(N4CCC(CN5CC6(CCN(c7cc8c(cc7F)C(=O)N(C7CCC(=O)NC7=O)C8)CC6)C5)CC4)ncc3Cl)ccc2n(C(C)C)c1=O` (centres unmarked) [Compound 84] are below 10 nM and at least 70%.
Taken in the same sequence, the figures for `CNC(=O)COc1cc2cc(Nc3nc(N4CCC(CN5CC6(CCN(c7cc8c(cc7OC)C(=O)N(C7CCC(=O)NC7=O)C8)CC6)C5)CC4)ncc3Cl)ccc2n(C(C)C)c1=O` (centres unmarked) [Compound 85, 2-{[6-({5-chloro-2-[4-({7-[2-(2,6-dioxopiperidin-3-yl)-6-methoxy-1-oxo-2,3-dihydro-1H-isoindol-5-yl]-2,7-diazaspiro[3.5]nonan-2-yl}methyl)piperidin-1-yl]pyrimidin-4-yl}amino)-2-oxo-1-(propan-2-yl)-1,2-dihydroquinolin-3-yl]oxy}-N-methylacetamide] were below 10 nM and 50 to 70%.
For `CNC(=O)COc1cc2cc(Nc3nc(N4CCC(CN5CC6(CCN(c7cc(F)c8c(c7)CN(C7CCC(=O)NC7=O)C8=O)CC6)C5)CC4)ncc3Cl)ccc2n(C(C)C)c1=O` (centres unmarked) [Compound 86, 2-{[6-({5-chloro-2-[4-({7-[2-(2,6-dioxopiperidin-3-yl)-7-fluoro-1-oxo-2,3-dihydro-1H-isoindol-5-yl]-2,7-diazaspiro[3.5]nonan-2-yl}methyl)piperidin-1-yl]pyrimidin-4-yl}amino)-2-oxo-1-(propan-2-yl)-1,2-dihydroquinolin-3-yl]oxy}-N-methylacetamide], the 50% degradation concentration (DC50) is below 10 nM and the Dmax is 50 to 70%.
In the case of `CNC(=O)COc1cc2cc(Nc3nc(N4CCC(CN5CC6(CCN(c7ccc8c(c7F)CN(C7CCC(=O)NC7=O)C8=O)CC6)C5)CC4)ncc3Cl)ccc2n(C(C)C)c1=O` (centres unmarked) [Compound 87, 2-{[6-({5-chloro-2-[4-({7-[2-(2,6-dioxopiperidin-3-yl)-4-fluoro-1-oxo-2,3-dihydro-1H-isoindol-5-yl]-2,7-diazaspiro[3.5]nonan-2-yl}methyl)piperidin-1-yl]pyrimidin-4-yl}amino)-2-oxo-1-(propan-2-yl)-1,2-dihydroquinolin-3-yl]oxy}-N-methylacetamide], the 50% degradation concentration (DC50) is below 10 nM and the maximal degradation (Dmax) fell in the range of 50 to 70%.
For `CNC(=O)COc1cc2cc(Nc3nc(N4CCC(CN5CC6(CCN(c7ccc8c(c7OC)CN(C7CCC(=O)NC7=O)C8=O)CC6)C5)CC4)ncc3Cl)ccc2n(C(C)C)c1=O` (centres unmarked) [Compound 88, 2-{[6-({5-chloro-2-[4-({7-[2-(2,6-dioxopiperidin-3-yl)-4-methoxy-1-oxo-2,3-dihydro-1H-isoindol-5-yl]-2,7-diazaspiro[3.5]nonan-2-yl}methyl)piperidin-1-yl]pyrimidin-4-yl}amino)-2-oxo-1-(propan-2-yl)-1,2-dihydroquinolin-3-yl]oxy}-N-methylacetamide], the half-maximal degradation concentration (DC50) was below 10 nM and the greatest degradation seen (Dmax) was below 50%.
As to `CNC(=O)COc1cc2cc(Nc3nc(N4CCN(C(C)(C)C5CCN(c6ccc7c(c6F)CN(C6CCC(=O)NC6=O)C7=O)CC5)CC4)ncc3Cl)ccc2n(C(C)C)c1=O` (centres unmarked) [Compound 89, 2-{[6-({5-chloro-2-[4-(2-{1-[2-(2,6-dioxopiperidin-3-yl)-4-fluoro-1-oxo-2,3-dihydro-1H-isoindol-5-yl]piperidin-4-yl}propan-2-yl)piperazin-1-yl]pyrimidin-4-yl}amino)-2-oxo-1-(propan-2-yl)-1,2-dihydroquinolin-3-yl]oxy}-N-methylacetamide], the 50% degradation concentration (DC50) is below 10 nM and the greatest degradation seen (Dmax) lay in the range of 50 to 70%.
For the compound `CNC(=O)COc1cc2cc(Nc3nc(N4CCC(CN5CCC6(CN(c7ccc8c(c7)CN(C7CCC(=O)NC7=O)C8=O)C6)C(F)(F)C5)CC4)ncc3Cl)ccc2n(C(C)C)c1=O` (centres unmarked) [Compound 90, 2-{[6-({5-chloro-2-[4-({2-[2-(2,6-dioxopiperidin-3-yl)-1-oxo-2,3-dihydro-1H-isoindol-5-yl]-5,5-difluoro-2,7-diazaspiro[3.5]nonan-7-yl}methyl)piperidin-1-yl]pyrimidin-4-yl}amino)-2-oxo-1-(propan-2-yl)-1,2-dihydroquinolin-3-yl]oxy}-N-methylacetamide], the DC50 was below 10 nM and the Dmax is 50 to 70%.
On to `CNC(=O)COc1cc2cc(Nc3nc(N4CCC(CN5CCC6(CN(c7cccc8c7C(=O)N(C7CCC(=O)NC7=O)C8=O)C6)C(F)(F)C5)CC4)ncc3Cl)ccc2n(C(C)C)c1=O` (centres unmarked) [Compound 91, 2-{[6-({5-chloro-2-[4-({2-[2-(2,6-dioxopiperidin-3-yl)-1,3-dioxo-2,3-dihydro-1H-isoindol-4-yl]-5,5-difluoro-2,7-diazaspiro[3.5]nonan-7-yl}methyl)piperidin-1-yl]pyrimidin-4-yl}amino)-2-oxo-1-(propan-2-yl)-1,2-dihydroquinolin-3-yl]oxy}-N-methylacetamide], for which the DC50 is below 10 nM and the Dmax was 50 to 70%.
As to `CNC(=O)COc1cc2cc(Nc3nc(N4CCC(O[C@H]5C[C@H](N6CCC(c7cc(F)c8c(c7)CN(C7CCC(=O)NC7=O)C8=O)CC6)C5)CC4)ncc3Cl)ccc2n(C(C)C)c1=O` (some centres unmarked) [Compound 92, 2-({6-[(5-chloro-2-{4-[(1r,3r)-3-{4-[2-(2,6-dioxopiperidin-3-yl)-7-fluoro-1-oxo-2,3-dihydro-1H-isoindol-5-yl]piperidin-1-yl}cyclobutoxy]piperidin-1-yl}pyrimidin-4-yl)amino]-2-oxo-1-(propan-2-yl)-1,2-dihydroquinolin-3-yl}oxy)-N-methylacetamide], the 50% degradation concentration (DC50) was below 10 nM and the greatest degradation seen (Dmax) is at least 70%.
`CNC(=O)COc1cc2cc(Nc3nc(N4CCC(F)(CN5CCC6(CC5)CCN(c5c(F)ccc7c5C(=O)N(C5CCC(=O)NC5=O)C7)CC6)CC4)ncc3Cl)ccc2n(C(C)C)c1=O` (centres unmarked) [Compound 93, 2-{[6-({5-chloro-2-[4-({9-[2-(2,6-dioxopiperidin-3-yl)-5-fluoro-3-oxo-2,3-dihydro-1H-isoindol-4-yl]-3,9-diazaspiro [5.5]undecan-3-yl}methyl)-4-fluoropiperidin-1-yl]pyrimidin-4-yl}amino)-2-oxo-1-(propan-2-yl)-1,2-dihydroquinolin-3-yl]oxy}-N-methylacetamide]: the half-maximal degradation concentration (DC50) is at least 100 nM and the Dmax was at least 70%.
Regarding `CNC(=O)COc1cc2cc(Nc3nc(N4CCC5(CCN(CC6(F)CCN(c7cccc8c7CN(C7CCC(=O)NC7=O)C8=O)CC6)CC5)CC4)ncc3Cl)ccc2n(C(C)C)c1=O` (centres unmarked) [Compound 95, 2-{[6-({5-chloro-2-[9-({1-[2-(2,6-dioxopiperidin-3-yl)-1-oxo-2,3-dihydro-1H-isoindol-4-yl]-4-fluoropiperidin-4-yl}methyl)-3,9-diazaspiro [5.5]undecan-3-yl]pyrimidin-4-yl}amino)-2-oxo-1-(propan-2-yl)-1,2-dihydroquinolin-3-yl]oxy}-N-methylacetamide], the DC50 is below 10 nM and the Dmax fell in the range of 50 to 70%.
Regarding `CNC(=O)COc1cc2cc(Nc3nc(N4CCC5(CCN(CC6(F)CCN(c7c(F)ccc8c7CN(C7CCC(=O)NC7=O)C8=O)CC6)CC5)CC4)ncc3Cl)ccc2n(C(C)C)c1=O` (centres unmarked) [Compound 96, 2-{[6-({5-chloro-2-[9-({1-[2-(2,6-dioxopiperidin-3-yl)-5-fluoro-1-oxo-2,3-dihydro-1H-isoindol-4-yl]-4-fluoropiperidin-4-yl}methyl)-3,9-diazaspiro[5.5]undecan-3-yl]pyrimidin-4-yl}amino)-2-oxo-1-(propan-2-yl)-1,2-dihydroquinolin-3-yl]oxy}-N-methylacetamide], the DC50 is below 10 nM and the Dmax is 50 to 70%.
As to `CNC(=O)COc1cc2cc(Nc3nc(N4CCC(F)(CN5CC(N6CCC(c7ccc8c(c7)C(=O)N(C7CCC(=O)NC7=O)C8=O)CC6)C5)CC4)ncc3Cl)ccc2n(C(C)C)c1=O` (centres unmarked) [Compound 97, 2-({6-[(5-chloro-2-{4-[(3-{4-[2-(2,6-dioxopiperidin-3-yl)-1,3-dioxo-2,3-dihydro-1H-isoindol-5-yl]piperidin-1-yl}azetidin-1-yl)methyl]-4-fluoropiperidin-1-yl}pyrimidin-4-yl)amino]-2-oxo-1-(propan-2-yl)-1,2-dihydroquinolin-3-yl}oxy)-N-methylacetamide], the DC50 was below 10 nM and the Dmax was 50 to 70%.
For the compound `CNC(=O)COc1cc2cc(Nc3nc(N4CCC(OC5CCC6(CCN(c7ccc8c(c7)CN(C7CCC(=O)NC7=O)C8=O)C6)C5)CC4)ncc3Cl)ccc2n(C(C)C)c1=O` (centres unmarked) [Compound 98, 2-{[6-({5-chloro-2-[4-({2-[2-(2,6-dioxopiperidin-3-yl)-1-oxo-2,3-dihydro-1H-isoindol-5-yl]-2-azaspiro[4.4]nonan-7-yl}oxy)piperidin-1-yl]pyrimidin-4-yl}amino)-2-oxo-1-(propan-2-yl)-1,2-dihydroquinolin-3-yl]oxy}-N-methylacetamide], the DC50 was below 10 nM and the Dmax was below 50%.

The values above are taken from US11986532B2 (Arvinas Operations, Inc., priority 2021, dated 2024).
